Laboratory results taken from BindingDB's records for patent US20240343694 (Korea Reserarch Institute of Chemical Technology, 2024).

Assays:
[1] = target: T1, Epidermal growth factor receptor [1-763,'FHEA',764-1210] (UniProt P00533); assay: Inhibitory Activity of Compounds Against EGFR Mutant Enzyme
T1 construct: 1-763,'FHEA',764-1210
Description: (§1) The activity of the compounds of the present invention against EGFR mutant enzymes was measured using the HTRF system purchased from Cisbio as follows. For an EGFR mutant enzyme, the EGFR del19 enzyme was a recombinant protein purchased from Carna Biosciences, and the EGFR A763_Y764insFHEA enzyme was a recombinant protein purchased from SignalChem, respectively.The composition of the assay buffer used for activity measurement was 50 mM tris-HCl pH 7.5, 100 mM NaCl, 7.5 mM MgCl2, 3 mM KCl, 0.01% tween 20, 0.1% BSA, and 1 mM DTT. An enzymatic reaction was performed using a peptide substrate labeled with ATP at a concentration of […] and biotin at a concentration of […]. The analysis of the inhibitory effect of the compounds on EGFR activity was performed according to the following method.Component 1:4 μL of EGFR mutant enzymeComponent 2:2 μL of compound solutionComponent 3:4 μL of ATP and a biotin labeled peptideThe enzyme reaction begins by first mixing component 1 and component 2 and then adding component 3 thereto. After the reaction at 37° C. for 2 hours, […] of a measurement solution consisting of streptavidin-XL665 and a europium-labeled anti-phosphotyrosine antibody purchased from Cisbio was added to the enzyme reaction solution and reacted at room temperature for 1 hour. Finally, the ratio of fluorescence values at 615 nm and 665 nm was measured using Perkin-Elmer's Envision instrument to calculate enzyme activity and confirm the inhibitory ability of the compounds.

[2] = target: T2, Epidermal growth factor receptor [DEL746-750] (Homo sapiens, UniProt P00533); assay: as above
T2 construct: gene EGFR
T2 sequence (P00533 with tags, fused parts or gaps DEL746-750 limits assumed, stated change not applied): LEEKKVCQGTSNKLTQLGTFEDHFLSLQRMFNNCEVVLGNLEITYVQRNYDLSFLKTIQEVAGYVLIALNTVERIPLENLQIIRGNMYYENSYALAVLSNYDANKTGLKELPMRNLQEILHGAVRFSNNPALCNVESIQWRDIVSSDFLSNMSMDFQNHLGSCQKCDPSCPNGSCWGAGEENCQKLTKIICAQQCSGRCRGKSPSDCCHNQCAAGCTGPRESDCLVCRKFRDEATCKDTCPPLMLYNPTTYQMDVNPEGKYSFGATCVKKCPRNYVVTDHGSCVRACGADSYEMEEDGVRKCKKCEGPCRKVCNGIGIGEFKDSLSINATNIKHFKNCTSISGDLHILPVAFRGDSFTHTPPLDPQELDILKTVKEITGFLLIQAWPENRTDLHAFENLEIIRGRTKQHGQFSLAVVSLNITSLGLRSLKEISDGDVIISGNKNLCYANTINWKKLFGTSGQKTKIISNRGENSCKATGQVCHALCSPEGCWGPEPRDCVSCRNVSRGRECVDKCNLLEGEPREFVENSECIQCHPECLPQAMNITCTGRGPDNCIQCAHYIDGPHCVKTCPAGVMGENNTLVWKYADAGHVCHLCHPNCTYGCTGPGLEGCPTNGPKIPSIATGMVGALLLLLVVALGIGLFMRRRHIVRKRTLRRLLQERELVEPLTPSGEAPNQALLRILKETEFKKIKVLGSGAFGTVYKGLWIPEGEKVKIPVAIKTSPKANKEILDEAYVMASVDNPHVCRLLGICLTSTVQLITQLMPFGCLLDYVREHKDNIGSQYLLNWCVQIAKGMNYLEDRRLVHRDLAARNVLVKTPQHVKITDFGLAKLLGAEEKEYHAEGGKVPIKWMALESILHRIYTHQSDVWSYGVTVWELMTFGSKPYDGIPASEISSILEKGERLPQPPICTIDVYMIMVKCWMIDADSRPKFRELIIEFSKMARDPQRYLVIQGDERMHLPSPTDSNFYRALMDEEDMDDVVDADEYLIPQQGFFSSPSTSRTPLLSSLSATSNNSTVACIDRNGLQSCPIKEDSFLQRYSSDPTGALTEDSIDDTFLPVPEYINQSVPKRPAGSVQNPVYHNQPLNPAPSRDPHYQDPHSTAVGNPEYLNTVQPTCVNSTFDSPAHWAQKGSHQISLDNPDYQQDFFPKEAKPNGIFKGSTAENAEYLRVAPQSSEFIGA
Description: as §1

[3] = target: T3, Receptor tyrosine-protein kinase erbB-2 [1-775,'YVMA',776-1255] (Homo sapiens, UniProt P04626); assay: Inhibitory Activity of Compounds Against HER2 A775_G776insYVMA mutant enzyme
T3 construct: 1-775,'YVMA',776-1255
T3 sequence (P04626 with tags, fused parts or gaps INS775YVMA limits assumed): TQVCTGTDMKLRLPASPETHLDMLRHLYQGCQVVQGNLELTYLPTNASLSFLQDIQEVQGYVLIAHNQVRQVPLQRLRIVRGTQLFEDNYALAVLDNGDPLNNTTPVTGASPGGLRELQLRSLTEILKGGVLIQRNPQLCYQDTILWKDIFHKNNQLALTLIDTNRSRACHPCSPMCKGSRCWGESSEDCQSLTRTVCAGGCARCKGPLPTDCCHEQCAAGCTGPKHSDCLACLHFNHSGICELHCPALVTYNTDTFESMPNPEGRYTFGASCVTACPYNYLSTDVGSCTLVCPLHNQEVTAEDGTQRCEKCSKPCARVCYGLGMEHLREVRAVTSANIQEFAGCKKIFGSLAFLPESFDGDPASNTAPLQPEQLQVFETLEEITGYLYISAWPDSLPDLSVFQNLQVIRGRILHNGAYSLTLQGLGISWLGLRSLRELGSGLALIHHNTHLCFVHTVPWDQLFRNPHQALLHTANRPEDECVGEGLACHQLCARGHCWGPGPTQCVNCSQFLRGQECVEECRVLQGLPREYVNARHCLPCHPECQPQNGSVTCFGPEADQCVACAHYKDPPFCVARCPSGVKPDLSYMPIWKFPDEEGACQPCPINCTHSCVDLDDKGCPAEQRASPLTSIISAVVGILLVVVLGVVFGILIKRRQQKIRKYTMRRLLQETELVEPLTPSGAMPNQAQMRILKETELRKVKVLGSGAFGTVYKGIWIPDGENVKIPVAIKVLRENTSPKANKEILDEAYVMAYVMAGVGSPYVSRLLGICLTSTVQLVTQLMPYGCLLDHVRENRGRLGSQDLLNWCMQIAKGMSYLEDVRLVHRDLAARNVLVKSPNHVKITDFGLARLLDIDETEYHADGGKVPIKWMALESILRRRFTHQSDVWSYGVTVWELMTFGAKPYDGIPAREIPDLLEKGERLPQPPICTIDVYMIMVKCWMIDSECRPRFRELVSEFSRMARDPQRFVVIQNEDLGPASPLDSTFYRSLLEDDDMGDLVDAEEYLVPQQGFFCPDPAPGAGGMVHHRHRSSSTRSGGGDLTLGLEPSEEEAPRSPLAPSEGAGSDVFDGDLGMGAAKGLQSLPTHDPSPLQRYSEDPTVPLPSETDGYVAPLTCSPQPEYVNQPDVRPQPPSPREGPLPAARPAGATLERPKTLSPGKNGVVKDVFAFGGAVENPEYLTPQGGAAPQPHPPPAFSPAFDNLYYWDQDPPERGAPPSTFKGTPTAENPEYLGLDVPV
Description: The activity of the compounds of the present invention against HER mutant enzymes was measured using the HTRF system purchased by Cisbio as follows. As a HER2 mutant enzyme, the HER2 A775_G776insYVMA mutant enzyme was used by purchasing a recombinant protein provided by Carna Biosciences.The composition of the assay buffer used for activity measurement was 50 mM tris-HCl pH 7.5, 100 mM NaCl, 7.5 mM MgCl2, 3 mM KCl, 0.01% tween 20, 0.1% BSA, and 1 mM DTT. In addition thereto, the enzymatic reaction was performed using a peptide substrate labeled with ATP at a concentration of […] and biotin at a concentration of […]. The analysis of the activity inhibitory effect of the compounds on HER2 A775_G776insYVMA mutation was performed according to the following method.Component 1:4 μL of HER2 A775_G776insYVMA mutant enzymeComponent 2:2 μL of compound solutionComponent 3:4 μL of ATP and a biotin labeled peptideThe enzyme reaction begins by first mixing component 1 and component 2 and then adding component 3 thereto. After the reaction at 37° C. for 2 hours, […] of a measurement solution consisting of streptavidin-XL665 and a europium-labeled anti-phosphotyrosine antibody purchased from Cisbio was added to the enzyme reaction solution and reacted at room temperature for 1 hour. Finally, the ratio of fluorescence values at 615 nm and 665 nm was measured using Perkin-Elmer's Envision equipment to calculate enzyme activity and confirm the inhibitory ability of the compounds.

T1 sequence (P00533 with tags, fused parts or gaps INS763FHEA limits assumed): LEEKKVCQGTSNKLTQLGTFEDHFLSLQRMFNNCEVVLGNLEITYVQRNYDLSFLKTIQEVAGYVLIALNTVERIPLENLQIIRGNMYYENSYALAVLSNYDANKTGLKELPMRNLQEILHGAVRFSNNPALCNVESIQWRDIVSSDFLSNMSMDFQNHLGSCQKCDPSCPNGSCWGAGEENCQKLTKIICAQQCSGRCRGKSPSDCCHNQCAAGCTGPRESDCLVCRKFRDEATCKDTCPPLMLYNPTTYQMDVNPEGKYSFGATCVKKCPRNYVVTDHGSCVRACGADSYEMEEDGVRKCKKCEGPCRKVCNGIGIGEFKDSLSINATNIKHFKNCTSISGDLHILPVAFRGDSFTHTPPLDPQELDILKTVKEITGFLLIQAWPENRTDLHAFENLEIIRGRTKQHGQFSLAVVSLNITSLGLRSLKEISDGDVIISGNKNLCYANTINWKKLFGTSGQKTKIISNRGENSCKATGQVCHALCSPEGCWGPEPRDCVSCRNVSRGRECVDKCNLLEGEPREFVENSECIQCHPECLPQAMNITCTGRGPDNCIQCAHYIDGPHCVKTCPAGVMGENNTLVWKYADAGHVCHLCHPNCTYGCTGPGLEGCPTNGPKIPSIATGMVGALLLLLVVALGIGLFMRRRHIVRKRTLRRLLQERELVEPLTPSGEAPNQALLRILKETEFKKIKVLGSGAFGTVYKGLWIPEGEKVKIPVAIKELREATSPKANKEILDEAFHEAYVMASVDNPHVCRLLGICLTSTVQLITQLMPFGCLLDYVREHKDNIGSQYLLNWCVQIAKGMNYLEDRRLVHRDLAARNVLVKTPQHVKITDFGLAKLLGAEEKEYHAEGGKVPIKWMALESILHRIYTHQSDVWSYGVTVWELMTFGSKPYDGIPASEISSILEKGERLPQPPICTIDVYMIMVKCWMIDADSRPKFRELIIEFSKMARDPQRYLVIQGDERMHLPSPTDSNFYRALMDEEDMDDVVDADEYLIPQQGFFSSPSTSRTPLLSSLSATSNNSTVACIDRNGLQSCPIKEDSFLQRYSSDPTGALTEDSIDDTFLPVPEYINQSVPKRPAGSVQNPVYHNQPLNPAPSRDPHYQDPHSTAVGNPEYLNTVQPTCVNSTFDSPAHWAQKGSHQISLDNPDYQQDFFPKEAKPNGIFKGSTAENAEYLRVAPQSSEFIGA

## CC(=O)Nc1c(Nc2nc(Cl)ncc2Cl)ccc(C)c1C [US20240343694, Example 87]
[1]
  IC50: 24 nM
[2]
  IC50: 4 nM
[3]
  IC50: 107 nM

## COC(=O)c1cnc(Cl)nc1Nc1cccc2c1N(S(C)(=O)=O)CC2 [US20240343694, Example 68]
[1]
  IC50: < 1 nM
[2]
  IC50: < 1 nM
[3]
  IC50: 6 nM

## Cc1cnc(Cl)nc1Nc1ccccc1NS(=O)(=O)c1ccccc1 [US20240343694, Example 28]
[1]
  IC50: 8 nM
[2]
  IC50: < 1 nM
[3]
  IC50: 70 nM

## CC(C)c1cccc(Nc2nc(Cl)ncc2Cl)c1N(C)S(C)(=O)=O [US20240343694, Example 47]
[1]
  IC50: < 1 nM
[2]
  IC50: < 1 nM
[3]
  IC50: 6 nM

## CCS(=O)(=O)Nc1ccccc1Nc1nc(Cl)ncc1C [US20240343694, Example 27]
[1]
  IC50: 9 nM
[2]
  IC50: 3 nM
[3]
  IC50: 30 nM

## CC(=O)N(C)c1c([N+](=O)[O-])ccc(C)c1C [US20240343694, Example 84]
[1]
  IC50: 3 nM
[2]
  IC50: 1 nM
[3]
  IC50: 52 nM

## O=S1(=O)CCCN1c1ccccc1Nc1nc(Cl)ncc1Cl [US20240343694, Example 77]
[1]
  IC50: < 1 nM
[2]
  IC50: < 1 nM
[3]
  IC50: 2 nM

## CS(=O)(=O)N1CCc2cccc(Nc3nc(Cl)ncc3C#N)c21 [US20240343694, Example 70]
[1]
  IC50: 4 nM
[2]
  IC50: < 1 nM
[3]
  IC50: 33 nM

## CC(=O)Nc1c([N+](=O)[O-])ccc(C)c1C [US20240343694, Example 83]
[1]
  IC50: 19 nM
[2]
  IC50: 3 nM
[3]
  IC50: 374 nM

## COc1cc(N2CCOCC2)c(N)cc1Nc1ncc(Cl)c(Nc2ccccc2NS(C)(=O)=O)n1 [US20240343694, Example 36]
[1]
  IC50: 1 nM
[2]
  IC50: < 1 nM
[3]
  IC50: 10 nM

## CCN(c1c(C)cccc1Nc1nc(Cl)ncc1Cl)S(C)(=O)=O [US20240343694, Example 49]
[1]
  IC50: 10 nM
[2]
  IC50: 0.1 nM
[3]
  IC50: 60 nM

## CS(=O)(=O)n1ccc2cccc(Nc3nc(Cl)ncc3Cl)c21 [US20240343694, Example 74]
[1]
  IC50: < 1 nM
[2]
  IC50: < 1 nM
[3]
  IC50: < 1 nM

## CC(=O)N(C)c1c(C)cccc1Nc1nc(Cl)ncc1Cl [US20240343694, Example 88]
[1]
  IC50: 2 nM
[2]
  IC50: < 1 nM
[3]
  IC50: 14 nM

## Cc1ccc(Nc2nc(Cl)ncc2Cl)c(N(C)S(C)(=O)=O)c1C [US20240343694, Example 53]
[3]
  IC50: 10 nM

## CCS(=O)(=O)N1CCc2cccc(Nc3nc(Cl)ncc3Cl)c21 [US20240343694, Example 66]
[1]
  IC50: < 1 nM
[2]
  IC50: < 1 nM
[3]
  IC50: 5 nM

## C=CC(=O)Nc1cc(N)c(OC)cc1OCCN1CCCCC1 [US20240343694, Example 81]
[1]
  IC50: < 1 nM
[2]
  IC50: < 1 nM
[3]
  IC50: < 1 nM

## CC(=O)Nc1c(C)cccc1Nc1nc(Cl)ncc1Cl [US20240343694, Example 89]
[1]
  IC50: 77 nM
[2]
  IC50: 20 nM
[3]
  IC50: 479 nM

## Cc1ccc(S(=O)(=O)Nc2ccccc2Nc2nc(Cl)ncc2F)cc1 [US20240343694, Example 23]
[1]
  IC50: 3 nM
[2]
  IC50: < 1 nM
[3]
  IC50: 30 nM

## CCc1cccc(Nc2nc(Cl)ncc2Cl)c1N(C)S(C)(=O)=O [US20240343694, Example 51]
[1]
  IC50: < 1 nM
[2]
  IC50: < 1 nM
[3]
  IC50: 30 nM

## CS(=O)(=O)N1CCCc2cccc(Nc3nc(Cl)ncc3Cl)c21 [US20240343694, Example 57]
[1]
  IC50: < 1 nM
[2]
  IC50: < 1 nM
[3]
  IC50: < 1 nM

## CS(=O)(=O)Nc1c(Nc2nc(Cl)ncc2Cl)ccc2nccnc12 [US20240343694, Example 76]
[1]
  IC50: < 1 nM
[2]
  IC50: < 1 nM
[3]
  IC50: 1 nM

## CN(c1ccccc1Nc1nc(Cl)ncc1Cl)S(C)(=O)=O [US20240343694, Example 39]
[1]
  IC50: < 1 nM
[2]
  IC50: < 1 nM
[3]
  IC50: 8 nM

## COc1cc(N2CCN(C)CC2)c(N)cc1Nc1ncc(Cl)c(Nc2ccccc2NS(C)(=O)=O)n1 [US20240343694, Example 37]
[1]
  IC50: 2 nM
[2]
  IC50: < 1 nM
[3]
  IC50: 26 nM

## CCS(=O)(=O)N(C)c1ccccc1Nc1nc(Cl)ncc1Cl [US20240343694, Example 40]
[1]
  IC50: 1 nM
[2]
  IC50: < 1 nM
[3]
  IC50: 4 nM

## Cc1ccc(Nc2nc(Cl)ncc2Cl)c(NS(C)(=O)=O)c1 [US20240343694, Example 56]
[1]
  IC50: < 1 nM
[2]
  IC50: < 1 nM
[3]
  IC50: < 1 nM

## CS(=O)(=O)N1CCc2cccc(Nc3nc(Cl)ncc3Cl)c21 [US20240343694, Example 65]
[1]
  IC50: < 1 nM
[2]
  IC50: < 1 nM
[3]
  IC50: 15 nM

## CN(c1c(Cl)cccc1Nc1nc(Cl)ncc1Cl)S(C)(=O)=O [US20240343694, Example 45]
[1]
  IC50: < 1 nM
[2]
  IC50: < 1 nM
[3]
  IC50: 8 nM

## Cc1ccc(S(=O)(=O)Nc2ccccc2Nc2nc(Cl)ncc2C)cc1 [US20240343694, Example 25]
[1]
  IC50: < 1 nM
[2]
  IC50: < 1 nM
[3]
  IC50: 6 nM

## Cc1cccc(Nc2nc(Cl)ncc2Cl)c1NS(C)(=O)=O [US20240343694, Example 46]
[1]
  IC50: < 1 nM
[2]
  IC50: < 1 nM
[3]
  IC50: 2 nM

## CCc1cccc(Nc2nc(Cl)ncc2Cl)c1NS(C)(=O)=O [US20240343694, Example 50]
[1]
  IC50: 3 nM
[2]
  IC50: < 1 nM
[3]
  IC50: 60 nM

## Cc1cccc(Nc2nc(Cl)ncc2Cl)c1N(C)S(C)(=O)=O [US20240343694, Example 48]
[1]
  IC50: 7 nM
[2]
  IC50: 3 nM
[3]
  IC50: 20 nM

## C=CC(=O)Nc1cc(Nc2ncc(Cl)c(Nc3cccc4c3N(S(C)(=O)=O)CC4)n2)c(OC)cc1N(C)CCN(C)C(=O)OC(C)(C)C [US20240343694, Example 67]
[1]
  IC50: < 1 nM
[2]
  IC50: < 1 nM
[3]
  IC50: 81 nM

## CS(=O)(=O)N1CCc2cccc(Nc3nc(Cl)ncc3C(F)(F)F)c21 [US20240343694, Example 73]
[1]
  IC50: < 1 nM
[2]
  IC50: < 1 nM
[3]
  IC50: 5 nM

## Cc1cnc(Cl)nc1Nc1ccccc1NS(C)(=O)=O [US20240343694, Example 24]
[1]
  IC50: 3 nM
[2]
  IC50: < 1 nM
[3]
  IC50: 27 nM

## CS(=O)(=O)Nc1c(Cl)cccc1Nc1nc(Cl)ncc1Cl [US20240343694, Example 44]
[1]
  IC50: < 1 nM
[2]
  IC50: < 1 nM
[3]
  IC50: 6 nM

## C=CC(=O)Nc1cc(Nc2ncc(Cl)c(Nc3ccccc3NS(C)(=O)=O)n2)c(OC)cc1N(C)CCN(C)C(=O)OCc1ccccc1 [US20240343694, Example 35]
[1]
  IC50: 3 nM
[2]
  IC50: < 1 nM
[3]
  IC50: 27 nM

## C=CC(=O)Nc1cc(Nc2ncc(Cl)c(Nc3ccccc3NS(C)(=O)=O)n2)c(OC)cc1N(C)CCN(C(=O)OCc1ccccc1)C(C)C [US20240343694, Example 33]
[1]
  IC50: < 1 nM
[2]
  IC50: < 1 nM
[3]
  IC50: 7 nM

## CCN(c1ccccc1Nc1nc(Cl)ncc1Cl)S(=O)(=O)CC [US20240343694, Example 43]
[1]
  IC50: < 1 nM
[2]
  IC50: < 1 nM
[3]
  IC50: 8 nM

## C=CC(=O)Nc1cc(N)c(OC)cc1OCCN1CCOCC1 [US20240343694, Example 80]
[1]
  IC50: < 1 nM
[2]
  IC50: < 1 nM
[3]
  IC50: 1 nM

## CC(C)OC(=O)c1cnc(Cl)nc1Nc1cccc2c1N(S(C)(=O)=O)CCC2 [US20240343694, Example 62]
[3]
  IC50: 3 nM

## C=CC(=O)Nc1cc(N)c(OC)cc1N(C)CCN1CCOCC1 [US20240343694, Example 63]
[3]
  IC50: < 1 nM
